Values quoted from earlier work as cited in paper PMC3068529 (Journal of the American Chemical Society, 2011).

Target: T1, TLR3 (Homo sapiens, UniProt O15455)
T1 sequence (O15455 24-904): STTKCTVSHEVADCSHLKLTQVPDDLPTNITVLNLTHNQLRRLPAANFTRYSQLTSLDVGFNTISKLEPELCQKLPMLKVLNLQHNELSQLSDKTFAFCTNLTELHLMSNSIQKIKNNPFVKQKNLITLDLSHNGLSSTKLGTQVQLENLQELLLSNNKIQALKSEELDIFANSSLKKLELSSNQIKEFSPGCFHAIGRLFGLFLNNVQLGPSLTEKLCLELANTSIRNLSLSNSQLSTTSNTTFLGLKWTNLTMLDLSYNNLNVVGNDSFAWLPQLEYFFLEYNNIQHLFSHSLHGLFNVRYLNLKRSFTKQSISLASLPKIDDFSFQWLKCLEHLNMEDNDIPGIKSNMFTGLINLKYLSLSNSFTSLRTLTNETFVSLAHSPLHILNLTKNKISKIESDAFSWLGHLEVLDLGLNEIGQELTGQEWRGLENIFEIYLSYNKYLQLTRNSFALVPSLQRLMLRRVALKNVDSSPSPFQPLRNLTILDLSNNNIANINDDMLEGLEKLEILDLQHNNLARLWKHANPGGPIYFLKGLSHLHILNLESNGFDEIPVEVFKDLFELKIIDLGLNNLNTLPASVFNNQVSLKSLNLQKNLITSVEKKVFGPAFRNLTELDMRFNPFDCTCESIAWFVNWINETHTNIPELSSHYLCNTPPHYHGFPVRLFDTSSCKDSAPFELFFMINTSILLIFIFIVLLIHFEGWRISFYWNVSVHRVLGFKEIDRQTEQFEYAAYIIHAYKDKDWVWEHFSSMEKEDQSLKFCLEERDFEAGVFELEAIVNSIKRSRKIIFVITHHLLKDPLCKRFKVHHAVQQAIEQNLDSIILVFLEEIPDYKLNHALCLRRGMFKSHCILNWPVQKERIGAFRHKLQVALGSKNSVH
Details: dsRNA binding to TLR3

Kd: 19 ± 0.9 nM
Substance: polyriboinosinic:polyribocytidylic acid [dsRNA]
